≈ marks a conversion by molar mass, not a printed value.
Each molecule was assayed on Mycobacterium tuberculosis H37Rv strains (assay: In vitro assay for antimicrobial susceptibility (microplate Alamar blue MIC)). Settings: Mycobacterium tuberculosis, H37RV, 7H9, Alamar blue, inhibition ≧90%; read-out: MIC (μg/mL) against H37Rv.
Format: cell-based
Work on `Clc1ccc(-n2c3c/c(=N\C4CCCCC4)c(Nc4cncnc4)cc-3nc3ccccc32)cc1` [TBI-961, 5-(4-Chlorophenyl)-3-cyclohexylimino-2-(pyrimidin-5-yl)amino-3,5-dihydrophenazine] yielded an MIC of 0.015 µg/mL (≈ 0.0312 µM).
In the case of `Clc1ccc(-n2c3c/c(=N\C4CCOCC4)c(Nc4cncnc4)cc-3nc3ccccc32)cc1` [TBI-960, 5-(4-Chlorophenyl)-3-(4-tetrahydropyranyl)imino-2-(pyrimidin-5-yl)amino-3,5-dihydrophenazine], the MIC is reported as 0.03 µg/mL (≈ 0.0621 µM).

Same assay, conditions: Mycobacterium tuberculosis, H37RV, in vitro, Mycobacterium tuberculosis H37Rv strains; read-out: MIC (μg/mL) against H37Rv
Molecule `Cc1ccc(-n2c3c/c(=N\C4CCC4)c(Nc4cncc(C)c4)cc-3nc3ccccc32)cc1` [TBI-348, 5-(4-Methylphenyl)-3-cyclobutylimino-2-(5-methyl-3-pyridyl)amino-3,5-dihydrophenazine] has an MIC of 0.118 µg/mL (≈ 0.265 µM).
`COC1CCC(/N=c2\cc3n(-c4ccc(C(F)(F)F)cc4)c4ccccc4nc-3cc2Nc2cncc(C)c2)CC1` (stereo not drawn) [TBI-724, 5-(4-Trifluoromethylphenyl)-3-(4-methoxycyclohexyl)imino-2-(5-meth-3-pyridyl)amino-3,5-dihydrophenazine] was tested, and the MIC was 0.03 µg/mL (≈ 0.0538 µM).
For `Clc1ccc(-n2c3c/c(=N\C4CC4)c(Nc4cccnc4)cc-3nc3ccccc32)c(Cl)c1` [TBI-367, 5-(2,4-Dichlorophenyl)-3-cyclopropylimino-2-(3-pyridyl)amino-3,5-dihydrophenazine], the MIC was 0.023 µg/mL (≈ 0.0487 µM).
Molecule `COc1ncccc1Nc1cc2nc3ccccc3n(-c3ccc(F)c(F)c3)c-2c/c1=N\C1CCC1` [TBI-530, 5-(3,4-Difluorophenyl)-3-cyclobutylimino-2-(2-methoxy-3-pyridyl)amino-3,5-dihydrophenazine] has an MIC of 0.04 µg/mL (≈ 0.0827 µM).
`Cc1ccc(Nc2cc3nc4ccccc4n(-c4ccc(Br)cc4)c-3c/c2=N\C2CCC2)cn1` [TBI-501, 5-(4-Bromophenyl)-3-cyclobutylimino-2-(6-methyl-3-pyridyl)amino-3,5-dihydrophenazine] showed an MIC of 0.09 µg/mL (≈ 0.176 µM).
Molecule `Cc1cncc(Nc2cc3nc4ccccc4n(-c4ccc(C(F)(F)F)cc4)c-3c/c2=N\C2CCOCC2)c1` [TBI-723, 5-(4-Trifluoromethylphenyl)-3-(4-tetrahydropyranyl)imino-2-(5-methyl-3-pyridyl)amino-3,5-dihydrophenazine] has an MIC of 0.041 µg/mL (≈ 0.0774 µM).
In the case of `Cc1ccc(-n2c3c/c(=N\C4CCC4)c(Nc4ccc(C)nc4)cc-3nc3ccccc32)cc1` [TBI-346, 5-(4-Methylphenyl)-3-cyclobutylimino-2-(6-methyl-3-pyridyl)amino-3,5-dihydrophenazine], the MIC is reported as 0.058 µg/mL (≈ 0.13 µM).
With `Cc1ncccc1Nc1cc2nc3ccccc3n(-c3ccc(C(F)(F)F)cc3)c-2c/c1=N\C1CCCCC1` [TBI-708, 5-(4-Trifluoromethylphenyl)-3-cyclohexylimino-2-(2-methyl-3-pyridyl)amino-3,5-dihydrophenazine] the MIC was 0.028 µg/mL (≈ 0.0531 µM).
`CC(C)/N=c1\cc2n(-c3cccc(OC(F)(F)F)c3)c3ccccc3nc-2cc1Nc1cccnc1` [TBI-1019] gave an MIC of 0.057 µg/mL (≈ 0.116 µM).
`COC1CCC(/N=c2\cc3n(-c4ccc(Cl)c(Cl)c4)c4ccc(F)cc4nc-3cc2Nc2ccc(C)nc2)CC1` (stereo not drawn) [TBI-878, 8-Fluoro-5-(3,4-dichlorophenyl)-3-(4-methoxycyclohexyl)imino-2-(6-methyl-3-pyridinyl)amino-3,5-dihydrophenazine] showed an MIC of 0.029 µg/mL (≈ 0.0503 µM).
`Clc1ccc(-n2c3c/c(=N\C4CCCCC4)c(Nc4cccnc4)cc-3nc3ccccc32)c(Cl)c1` [TBI-368, 5-(2,4-Dichlorophenyl)-3-cyclohexylimino-2-(3-pyridyl)amino-3,5-dihydrophenazine] showed an MIC of 0.054 µg/mL (≈ 0.105 µM).
With `C/N=c1\cc2n(-c3ccccc3)c3ccccc3nc-2cc1Nc1cccnc1C` [TBI-078] the MIC was 0.019 µg/mL (≈ 0.0485 µM).
`COc1ccc(Nc2cc3nc4ccccc4n(-c4ccccc4)c-3c/c2=N\C2CCC(OC)CC2)cn1` (stereo not drawn) [TBI-514, 5-Phenyl-3-(4-methoxycyclohexyl)imino-2-(6-methoxy-3-pyridyl)amino-3,5-dihydrophenazine] was tested, and the MIC was 0.243 µg/mL (≈ 0.481 µM).
`Cc1ccc(Nc2cc3nc4ccccc4n(-c4ccc(Cl)c(Cl)c4)c-3c/c2=N\C2CCCCC2)cn1` [TBI-354, 5-(3,4-Dichlorophenyl)-3-cyclohexylimino-2-(6-methyl-3-pyridyl)amino-3,5-dihydrophenazine] was tested, and the MIC was 0.229 µg/mL (≈ 0.433 µM).
`Cc1ccc(-n2c3c/c(=N\C4CCN(C)CC4)c(Nc4ccc(C)nc4)cc-3nc3ccccc32)cc1` [TBI-319, 5-(4-Methylphenyl)-3-(N-methyl-4-piperidyl)imino-2-(6-methyl-3-pyridyl)amino-3,5-dihydrophenazine] gave an MIC of 0.173 µg/mL (≈ 0.354 µM).
`Clc1ccc(-n2c3c/c(=N\C4CCC4)c(Nc4cncc(Br)c4)cc-3nc3ccccc32)cc1` [TBI-883, 5-(4-Chlorophenyl)-3-cyclobutylimino-2-(5-bromo-3-pyridyl)amino-3,5-dihydrophenazine] showed an MIC of 0.03 µg/mL (≈ 0.0565 µM).
`COc1ncccc1Nc1cc2nc3ccccc3n(-c3ccc(Cl)cc3)c-2c/c1=N\C1CCN(CC(C)C)CC1` [TBI-442, 5-(4-Chlorophenyl)-3-(N-isobutyl-4-piperidyl)imino-2-(2-methoxy-3-pyridyl)amino-3,5-dihydrophenazine] was tested, and the MIC was 0.016 µg/mL (≈ 0.0282 µM).
`COc1ncccc1Nc1cc2nc3ccccc3n(-c3ccc(C(F)(F)F)cc3)c-2c/c1=N\CCN1CCOCC1` [TBI-704, 5-(4-Trifluoromethylphenyl)-3-(2-morpholinoethyl)imino-2-(2-methoxy-3-pyridyl)amino-3,5-dihydrophenazine] was tested, and the MIC was 0.061 µg/mL (≈ 0.106 µM).
`COc1ncccc1Nc1cc2nc3ccccc3n(-c3ccccc3Cl)c-2c/c1=N\C1CCOCC1` [TBI-870] showed an MIC of 0.084 µg/mL (≈ 0.164 µM).
`Cc1ccc(Nc2cc3nc4ccccc4n(-c4cccc(Cl)c4)c-3c/c2=N\C2CCOCC2)cn1` [TBI-80A, 5-(3-Chlorophenyl)-3-(4-tetrahydropyranyl)imino-2-(6-methyl-3-pyridyl)amino-3,5-dihydrophenazine] was tested, and the MIC was 0.125 µg/mL (≈ 0.252 µM).
`CC(C)/N=c1\cc2n(-c3ccc(Cl)cc3Cl)c3ccccc3nc-2cc1Nc1cccnc1` [TBI-363, 5-(2,4-Dichlorophenyl)-3-(1-methylethyl)imino-2-(3-pyridyl)amino-3,5-dihydrophenazine] gave an MIC of 0.03 µg/mL (≈ 0.0632 µM).
With `COc1ncccc1Nc1cc2nc3ccccc3n(-c3ccc(OC(F)(F)F)cc3)c-2c/c1=N\C1CCCCC1` [TBI-365, 5-(4-Trifluoromethoxyphenyl)-3-cyclohexylimino-2-(2-methoxy-3-pyridyl)amino-3,5-dihydrophenazine] the MIC was 0.018 µg/mL (≈ 0.0322 µM).
For `COCC(C/N=c1\cc2n(-c3ccc(C(F)(F)F)cc3)c3ccccc3nc-2cc1Nc1cccnc1OC)OC` (stereo not drawn) [TBI-744], the MIC was 0.059 µg/mL (≈ 0.105 µM).
`CC(C)/N=c1\cc2n(-c3ccc(F)c(F)c3)c3ccccc3nc-2cc1Nc1cccnc1` [TBI-525, 5-(3,4-Difluorophenyl)-3-(1-methylethyl)imino-2-(3-pyridyl)amino-3,5-dihydrophenazine] showed an MIC of 0.058 µg/mL (≈ 0.131 µM).
In the case of `COc1ncccc1Nc1cc2nc3ccc(F)cc3n(-c3ccc(Cl)c(Cl)c3)c-2c/c1=N\C1CCOCC1` [TBI-884, 7-Fluoro-5-(3,4-dichlorophenyl)-3-(4-tetrahydropyranyl)imino-2-(2-methoxy-3-pyridyl)amino-3,5-dihydrophenazine], the MIC is reported as 0.5 µg/mL (≈ 0.886 µM).
With `COc1ccc(Nc2cc3nc4ccccc4n(-c4ccc(C)cc4)c-3c/c2=N\C(C)C)cn1` [TBI-356, 5-(4-Methylphenyl)-3-(1-methylethyl)imino-2-(6-methoxy-3-pyridyl)amino-3,5-dihydrophenazine] the MIC was 0.459 µg/mL (≈ 1.02 µM).
For `Cc1ccc(Nc2cc3nc4ccccc4n(-c4ccc(Br)cc4)c-3c/c2=N\C2CCOCC2)cn1` [TBI-504, 5-(4-Bromophenyl)-3-(4-tetrahydropyranyl)imino-2-(6-methyl-3-pyridyl)amino-3,5-dihydrophenazine], the MIC was 0.044 µg/mL (≈ 0.0814 µM).
`Fc1ccc(-n2c3c/c(=N\C4CCN(C5CCCC5)CC4)c(Nc4cccnc4)cc-3nc3ccccc32)cc1` [TBI-684, 5-(4-Fluorophenyl)-3-(N-cyclopentyl-4-piperidyl)imino-2-(3-pyridyl)amino-3,5-dihydrophenazine] was tested, and the MIC was 0.5 µg/mL (≈ 0.939 µM).
`FC(F)(F)c1ccc(-n2c3c/c(=N\C4CCOCC4)c(Nc4cccnc4)cc-3nc3ccccc32)cc1` [TBI-686, 5-(4-Trifluoromethylphenyl)-3-(4-tetrahydropyranyl)imino-2-(3-pyridyl)amino-3,5-dihydrophenazine] was tested, and the MIC was 0.125 µg/mL (≈ 0.242 µM).
`Cc1cncc(Nc2cc3nc4ccccc4n(-c4ccc(F)cc4)c-3c/c2=N\C2CCOCC2)c1` [TBI-1028, 5-(4-Fluorophenyl)-3-(4-tetrahydropyranyl)imino-2-(5-methyl-3-pyridyl)amino-3,5-dihydrophenazine] was tested, and the MIC was 0.06 µg/mL (≈ 0.125 µM).
In the case of `COc1ncccc1Nc1cc2nc3ccccc3n(-c3ccc(C(F)(F)F)cc3)c-2c/c1=N\C1CCN(CC(C)C)CC1` [TBI-702], the MIC is reported as 0.016 µg/mL (≈ 0.0266 µM).
`Clc1ccccc1-n1c2c/c(=N\C3CCCCC3)c(Nc3cccnc3)cc-2nc2ccccc21` [TBI-891, 5-(2-Chlorophenyl)-3-cyclohexylimino-2-(3-pyridyl)amino-3,5-dihydrophenazine] showed an MIC of 0.036 µg/mL (≈ 0.075 µM).
Work on `Cc1ccc(Nc2cc3nc4ccccc4n(-c4ccc(F)cc4)c-3c/c2=N\C2CCOCC2)cn1` [TBI-900, 5-(4-Fluorophenyl)-3-(4-tetrahydropyranyl)imino-2-(6-methyl-3-pyridyl)amino-3,5-dihydrophenazine] yielded an MIC of 0.125 µg/mL (≈ 0.261 µM).
`COC1CCC(/N=c2\cc3n(-c4ccc(C)cc4)c4ccccc4nc-3cc2Nc2ccc(C)nc2)CC1` (stereo not drawn) [TBI-316, 5-(4-Methylphenyl)-3-(4-methoxycyclohexyl)imino-2-(6-methyl-3-pyridyl)amino-3,5-dihydrophenazine] was tested, and the MIC was 0.028 µg/mL (≈ 0.0556 µM).
Work on `COc1ncccc1Nc1cc2nc3ccccc3n(-c3ccc(Cl)cc3Cl)c-2c/c1=N\C1CCOCC1` [TBI-947, 5-(2,4-Dichlorophenyl)-3-(4-tetrahydropyranyl)imino-2-(2-methoxy-3-pyridyl)amino-3,5-dihydrophenazine] yielded an MIC of 0.06 µg/mL (≈ 0.11 µM).
`Clc1ccc(-n2c3c/c(=N\C4CC4)c(Nc4cncc(Br)c4)cc-3nc3ccccc32)cc1` [TBI-882, 5-(4-Chlorophenyl)-3-cyclopropylimino-2-(5-bromo-3-pyridyl)amino-3,5-dihydrophenazine] was tested, and the MIC was 0.015 µg/mL (≈ 0.029 µM).
`CN1CCC(/N=c2\cc3n(-c4ccc(OC(F)(F)F)cc4)c4ccccc4nc-3cc2Nc2cccnc2)CC1` [TBI-159, 5-(4-Trifluoromethoxyphenyl)-3-(N-methyl-4-piperidyl)imino-2-(3-pyridyl)amino-3,5-dihydrophenazine] was tested, and the MIC was 0.25 µg/mL (≈ 0.459 µM).

Source: US8716292B2, “Riminophenazines with 2-(heteroaryl)amino substituents and their anti-microbial activity” (priority 2010, dated 2014)
